Data: PubChem BioAssay AID248 (DTP/NCI, 2004)
Toxic doses and inconclusive results are not listed. Cut-off read from the data, not from the text of the source: active = T/C of 150% or more; inactive = T/C below 125%.

Tested on: L1210 leukemia ip in BDF1 mice, survival T/C
Experiment: NCI In Vivo Anticancer Drug Screen. Data for tumor model L1210 Leukemia (intraperitoneal) in B6D2F1 (BDF1) mice
Details: endpoint: mean survival time, higher = longer survival
In short: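 Read-out is survival time, reported as the treated-group measurement over the vehicle-control measurement.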

[1] = dose: 100.0 mg/kg/injection, schedule: Q01DX009 (ip), vehicle: Klucel (hydroxypropylcellulose) (HPC)
[2] = dose: 200.0 mg/kg/injection, schedule: Q01DX009 (ip), vehicle: Klucel (hydroxypropylcellulose) (HPC)
[3] = dose: 400.0 mg/kg/injection, schedule: Q01DX009 (ip), vehicle: Klucel (hydroxypropylcellulose) (HPC)
[4] = dose: 100.0 mg/kg/injection, schedule: Q04DX003 (ip), vehicle: saline with Tween-80
[5] = dose: 200.0 mg/kg/injection, schedule: Q04DX003 (ip), vehicle: saline with Tween-80
[6] = dose: 400.0 mg/kg/injection, schedule: Q04DX003 (ip), vehicle: saline with Tween-80
[7] = dose: 100.0 mg/kg/injection, schedule: Q01DX009 (ip), vehicle: saline
[8] = dose: 100.0 mg/kg/injection, schedule: Q04DX003 (ip), vehicle: saline
[9] = dose: 200.0 mg/kg/injection, schedule: Q01DX009 (ip), vehicle: saline
[10] = dose: 200.0 mg/kg/injection, schedule: Q04DX003 (ip), vehicle: saline
[11] = dose: 400.0 mg/kg/injection, schedule: Q04DX003 (ip), vehicle: saline
[12] = dose: 50.0 mg/kg/injection, schedule: Q01DX009 (ip), vehicle: saline with Tween-80
[13] = dose: 100.0 mg/kg/injection, schedule: Q01DX009 (ip), vehicle: saline with Tween-80
[14] = dose: 200.0 mg/kg/injection, schedule: Q01DX009 (ip), vehicle: saline with Tween-80
[15] = dose: 100.0 mg/kg/injection, schedule: Q04DX003 (ip), vehicle: Klucel (hydroxypropylcellulose) (HPC)
[16] = dose: 200.0 mg/kg/injection, schedule: Q04DX003 (ip), vehicle: Klucel (hydroxypropylcellulose) (HPC)
[17] = dose: 100.0 mg/kg/injection, schedule: Q01DX001 (ip), vehicle: saline
[18] = dose: 200.0 mg/kg/injection, schedule: Q01DX001 (ip), vehicle: saline
[19] = dose: 400.0 mg/kg/injection, schedule: Q01DX001 (ip), vehicle: saline
[20] = dose: 400.0 mg/kg/injection, schedule: Q04DX003 (ip), vehicle: Klucel (hydroxypropylcellulose) (HPC)
[21] = dose: 50.0 mg/kg/injection, schedule: Q04DX003 (ip), vehicle: saline
[22] = dose: 100.0 mg/kg/injection, schedule: Q01DX001 (ip), vehicle: carboxymethylcellulose (CMC)
[23] = dose: 200.0 mg/kg/injection, schedule: Q01DX001 (ip), vehicle: carboxymethylcellulose (CMC)
[24] = dose: 400.0 mg/kg/injection, schedule: Q01DX001 (ip), vehicle: carboxymethylcellulose (CMC)

Measured: T/C

O=C(CCl)Nc1ccc(S(=O)(=O)F)cc1
inactive: dose: 12.5 mg/kg/injection, schedule: Q01DX009 (ip), vehicle: carboxymethylcellulose (CMC) 93 % of control | dose: 25.0 mg/kg/injection, schedule: Q01DX009 (ip), vehicle: carboxymethylcellulose (CMC) 88 % of control | dose: 50.0 mg/kg/injection, schedule: Q01DX009 (ip), vehicle: carboxymethylcellulose (CMC) 88 % of control | dose: 100.0 mg/kg/injection, schedule: Q04DX003 (ip), vehicle: carboxymethylcellulose (CMC) 96 % of control

Cc1ccc(Cl)cc1NC(=O)C(Br)C(Br)c1ccccc1 (stereo not given)
inactive: [1] 100 % of control | [2] 96 % of control | [3] 104 % of control

CCCCOCCOP(OCCOCCCC)OCCOCCCC
inactive: [1] 101 % of control | [2] 102 % of control | [3] 90 % of control

O=C1C=C(c2ccccc2)C(=O)c2ccccc21
inactive: dose: 100.0 mg/kg/injection, schedule: Q01DX001 (ip), vehicle: Klucel (hydroxypropylcellulose) (HPC) 106 % of control | dose: 200.0 mg/kg/injection, schedule: Q01DX001 (ip), vehicle: Klucel (hydroxypropylcellulose) (HPC) 101 % of control | dose: 400.0 mg/kg/injection, schedule: Q01DX001 (ip), vehicle: Klucel (hydroxypropylcellulose) (HPC) 105 % of control

CSc1nc(N)c2n[nH]nc2n1
inactive: [4] 103 % of control | [5] 95 % of control | [6] 95 % of control

COc1ccccc1P(c1ccccc1OC)c1ccccc1OC
inactive: [7] 95 % of control | [8] 113 % of control | [9] 92 % of control | [10] 102 % of control | dose: 400.0 mg/kg/injection, schedule: Q01DX009 (ip), vehicle: saline 98 % of control | [11] 101 % of control

[B]N1C(C)=CC=CC1C (stereo not given)
inactive: [12] 92 % of control | [13] 92 % of control | [14] 89 % of control

COc1cc(NC=O)c2ncccc2c1
inactive: dose: 50.0 mg/kg/injection, schedule: Q04DX003 (ip), vehicle: Klucel (hydroxypropylcellulose) (HPC) 97 % of control | [15] 100 % of control | [16] 88 % of control

C=COC(=O)NCC(=O)O
inactive: [17] 91 % of control | [18] 97 % of control | [19] 92 % of control

O=C(Nc1cccc(F)c1)N(Cc1ccccc1)Cc1ccccc1
inactive: [1] 92 % of control | [2] 102 % of control | [3] 97 % of control

COC(=O)[C@@H]1c2cc3c(c(O)c2[C@@H](OC2OC(C)C(OC)C(C)(OC)C2OC)C[C@]1(C)O)C(=O)c1c(O)cc2c(c1C3=O)O[C@H]1O[C@]2(C)[C@H](O)[C@@H](N(C)C)[C@@H]1O (stereo not given in full)
inactive: dose: 0.2 mg/kg/injection, schedule: Q01DX Z (ip), vehicle: saline 98 % of control | dose: 0.25 mg/kg/injection, schedule: Q01DX009 (ip), vehicle: saline 102 % of control | dose: 0.3 mg/kg/injection, schedule: Q01DX Z (ip), vehicle: saline 116 % of control | dose: 0.44 mg/kg/injection, schedule: Q01DX Z (ip), vehicle: saline 107 % of control | dose: 0.5 mg/kg/injection, schedule: Q01DX009 (ip), vehicle: saline 107 % of control | dose: 0.67 mg/kg/injection, schedule: Q01DX Z (ip), vehicle: saline 112 % of control | dose: 0.8 mg/kg/injection, schedule: Q## X008 (ip), vehicle: saline 113 % of control | dose: 0.8 mg/kg/injection, schedule: Q## X032 (ip), vehicle: saline 113 % of control | dose: 1.0 mg/kg/injection, schedule: Q01DX001 (ip), vehicle: saline 115 % of control | dose: 1.0 mg/kg/injection, schedule: Q01DX009 (ip), vehicle: saline 106 % of control | dose: 1.0 mg/kg/injection, schedule: Q01DX Z (ip), vehicle: saline 107 % of control | dose: 1.5 mg/kg/injection, schedule: Q01DX Z (ip), vehicle: carboxymethylcellulose (CMC) 116 % of control | dose: 2.0 mg/kg/injection, schedule: Q01DX001 (ip), vehicle: saline 120 % of control | dose: 2.0 mg/kg/injection, schedule: Q01DX009 (ip), vehicle: saline 86 % of control | dose: 2.0 mg/kg/injection, schedule: Q01DX Z (ip), vehicle: carboxymethylcellulose (CMC) 102 % of control | dose: 4.0 mg/kg/injection, schedule: Q01DX001 (ip), vehicle: saline 114 % of control | dose: 5.0 mg/kg/injection, schedule: Q01DX001 (ip), vehicle: saline 118 % of control | dose: 8.0 mg/kg/injection, schedule: Q01DX001 (ip), vehicle: saline 108 % of control | dose: 8.0 mg/kg/injection, schedule: Q## X008 (ip), vehicle: saline 109 % of control | dose: 8.0 mg/kg/injection, schedule: Q## X032 (ip), vehicle: saline 103 % of control | dose: 10.0 mg/kg/injection, schedule: Q01DX001 (ip), vehicle: saline 109 % of control

CC(=O)OC1OC(C[Se][As](C)C)C(OC(C)=O)C(OC(C)=O)C1OC(C)=O (stereo not given)
inactive: [15] 104 % of control | [16] 98 % of control | [20] 95 % of control

O=C1OC(c2ccccc2)CC1N1CCOCC1 (stereo not given)
inactive: dose: 100.0 mg/kg/injection, schedule: Q01DX009 (ip), vehicle: saline sonified 106 % of control | [15] 98 % of control | dose: 200.0 mg/kg/injection, schedule: Q01DX009 (ip), vehicle: saline sonified 99 % of control | [16] 104 % of control | dose: 400.0 mg/kg/injection, schedule: Q01DX009 (ip), vehicle: saline sonified 97 % of control | [20] 98 % of control

CCCc1cn(C(=O)NC2CCCCC2)c2ccccc12
inactive: [17] 94 % of control | [8] 106 % of control | [18] 94 % of control | [10] 112 % of control | [19] 87 % of control | [11] 93 % of control

CCCCCCCC1CCC(=O)O1 (stereo not given)
inactive: [21] 103 % of control | [17] 95 % of control | [8] 105 % of control | [18] 98 % of control | [10] 97 % of control | [19] 100 % of control

COc1ccccc1-n1c(O)c(N=Nc2ccccc2C)c(=O)n(-c2ccccc2OC)c1=S
inactive: [15] 96 % of control | [16] 94 % of control | [20] 100 % of control

COc1ccc(C(O)(c2ccc(OC)cc2)c2ccccn2)cc1
inactive: [4] 95 % of control | [5] 102 % of control | [6] 91 % of control

COC(=O)C1(C)CCCC2(C)C1CCC13OCC(CC21)C(O)(C(C)C)C3O (stereo not given)
inactive: [12] 97 % of control | [13] 97 % of control | [14] 90 % of control

Clc1nc(Cl)nc(SCCSc2nc(Cl)nc(Cl)n2)n1
inactive: [8] 97 % of control | [10] 110 % of control | [11] 98 % of control

CC1OC(C)C(Cl)C1Cl (stereo not given)
inactive: dose: 50.0 mg/kg/injection, schedule: Q04DX002 (ip), vehicle: Klucel (hydroxypropylcellulose) (HPC) 110 % of control | dose: 100.0 mg/kg/injection, schedule: Q04DX002 (ip), vehicle: Klucel (hydroxypropylcellulose) (HPC) 95 % of control | dose: 200.0 mg/kg/injection, schedule: Q04DX002 (ip), vehicle: Klucel (hydroxypropylcellulose) (HPC) 100 % of control

CCCC(/C=N\NC(=O)c1ccc[n+](C)c1)CC (stereo not given)
inactive: dose: 50.0 mg/kg/injection, schedule: Q01DX009 (ip), vehicle: saline 103 % of control | [7] 103 % of control | [9] 100 % of control

Cc1ccc2nn(-c3ccc(O)cc3)nc2c1
inactive: [22] 98 % of control | [23] 93 % of control | [24] 96 % of control

CSc1nc2ncnn2c(=O)[nH]1
inactive: [21] 96 % of control | [8] 94 % of control | [10] 100 % of control | [11] 92 % of control

CC(=O)O/C=C\c1ccccc1
inactive: dose: 50.0 mg/kg/injection, schedule: Q01DX001 (ip), vehicle: carboxymethylcellulose (CMC) 104 % of control | [22] 98 % of control | [23] 107 % of control | [24] 98 % of control
